Measured values: ChEMBL document CHEMBL5104106, “Designed hybrid anticancer nuclear-localized peptide inhibits aggressive cancer cell proliferation” (RSC Med Chem, 2022)
Active and inactive are the calls of the source. The rule behind the calls is not given here. Where a SMILES comes first, the peptide text is derived from it. The star is where a group is joined. X1 = O=C(c1ccccc1-c1c2ccc(=O)cc-2oc2cc(O)ccc12)*

Experiments:
[1] = system: U-937; assay: Induction of apoptosis in human U-937 cells incubated for 24 hrs by AnnexinV-FITC/propidium iodide staining based flow cytometric analysis; assay type: functional, cell-based; settings: U-937, 24 h
[2] = system: K562; assay: Induction of apoptosis in human K562 cells incubated for 24 hrs by AnnexinV-FITC/propidium iodide staining based flow cytometric analysis; assay type: functional, cell-based; settings: K562, 24 h
[3] = Drug uptake in human K562 cells at 5 uM incubated for 1 hrs by flow cytometry analysis; assay type: ADME, cell-based; settings: k562, 1 h
[4] = Drug uptake in human U-937 cells at 5 uM incubated for 4 hrs by flow cytometric analysis; assay type: ADME, cell-based; settings: u-937, 4 h
[5] = Drug uptake in human K562 cells at 5 uM incubated for 4 hrs by Hoechst 33258 staining based fluorescence microscopic analysis; assay type: ADME, cell-based; settings: k562, 4 h
[6] = system: K562; assay: Induction of apoptosis in human K562 cells assessed as […] incubated for 24 hrs by AnnexinV-FITC/propidium iodide staining based flow cytometric analysis (reference value: 31 +/- 0.4 %); assay type: functional
[7] = system: K562; assay: Induction of apoptosis in human K562 cells assessed as cell death at 10 to 20 uM incubated for 24 hrs by AnnexinV-FITC/propidium iodide staining based flow cytometric analysis; assay type: functional; settings: dose 10-20 µM
[8] = system: K562; assay: Induction of apoptosis in human K562 cells assessed as late apoptotic cells at 1.5625 to 25 uM incubated for 24 hrs by AnnexinV-FITC/propidium iodide staining based flow cytometric analysis; assay type: functional, cell-based; settings: dose 1.5625-25 µM
[9] = system: K562; assay: Induction of apoptosis in human K562 cells assessed as early apoptotic cells at 1.5625 to 25 uM incubated for 24 hrs by AnnexinV-FITC/propidium iodide staining based flow cytometric analysis; assay type: functional, cell-based; settings: dose 1.5625-25 µM

Molecule	IC50 [1] [µM]	IC50 [2] [µM]	Drug uptake [3]	Activity [6] [%]	further results
H-FLDTLVVLHR-OH	374	30.1			
CC(C)C[C@H](NC(=O)[C@H](Cc1ccccc1)NC(=O)c1ccccc1-c1c2ccc(=O)cc-2oc2cc(O)ccc12)C(=O)N[C@@H](CC(=O)O)C(=O)N[C@H](C(=O)N[C@@H](CC(C)C)C(=O)N[C@H](C(=O)N[C@H](C(=O)N[C@@H](CC(C)C)C(=O)N[C@@H](Cc1cnc[nH]1)C(=O)N[C@@H](CCCNC(=N)N)C(=O)O)C(C)C)C(C)C)[C@@H](C)O (X1-FLDTLVVLHR-OH)			Active		
CSCC[C@H](NC(=O)[C@H](CC(C)C)NC(=O)[C@H](CCCCN)NC(=O)[C@H](CCC(N)=O)NC(=O)[C@H](CCCNC(=N)N)NC(=O)[C@H](CCCCN)NC(=O)[C@H](CCCNC(=N)N)NC(=O)[C@H](CCC(N)=O)NC(=O)[C@@H](NC(=O)[C@H](CCCNC(=N)N)NC(=O)[C@H](Cc1cnc[nH]1)NC(=O)[C@H](CC(C)C)NC(=O)[C@@H](NC(=O)[C@@H](NC(=O)[C@H](CC(C)C)NC(=O)[C@@H](NC(=O)[C@H](CC(=O)O)NC(=O)[C@H](CC(C)C)NC(=O)[C@H](Cc1ccccc1)NC(=O)c1ccccc1-c1c2ccc(=O)cc-2oc2cc(O)ccc12)[C@@H](C)O)C(C)C)C(C)C)C(C)C)C(=O)N1CCC[C@H]1C(=O)O (X1-FLDTLVVLHRVQRKRQKLMP-OH)			Active		Drug uptake [4]: Active; Drug uptake [5]: Active
CC[C@H](C)[C@H](NC(=O)[C@@H]1CCCN1C(=O)[C@@H](NC(=O)[C@@H](C)N)C(C)C)C(=O)N[C@@H](Cc1ccccc1)C(=O)N[C@@H](CCCCN)C(=O)N[C@@H](Cc1ccccc1)C(=O)N[C@@H](CC(C)C)C(=O)N[C@@H](CC(=O)O)C(=O)N[C@H](C(=O)N[C@@H](CC(C)C)C(=O)N[C@H](C(=O)N[C@H](C(=O)N[C@@H](CC(C)C)C(=O)N[C@@H](Cc1cnc[nH]1)C(=O)N[C@@H](CCCNC(=N)N)C(=O)N[C@H](C(=O)N[C@@H](CCC(N)=O)C(=O)N[C@@H](CCCNC(=N)N)C(=O)N[C@@H](CCCCN)C(=O)N[C@@H](CCCNC(=N)N)C(=O)N[C@@H](CCC(N)=O)C(=O)N[C@@H](CCCCN)C(=O)N[C@@H](CC(C)C)C(=O)N[C@@H](CCSC)C(=O)N1CCC[C@H]1C(=O)O)C(C)C)C(C)C)C(C)C)[C@@H](C)O				44	Activity [7]: Active
H-FLDTLVVLHRVQRKRQKLMP-OH	1390	5.58		36	Activity [8]: Active; Activity [9]: Active
